From patent publication US10961526B2, “Transformant, and method for producing protocatechuic acid or salt thereof using same” (RESEARCH INSTITUTE OF INNOVATIVE TECHNOLOGY FOR THE EARTH, priority 2016, dated 2021)

What was measured:
Assay type in all cases: cell-based
[1] = test system: Saccharomyces cerevisiae strain NBRC2376; assay: Inhibition by protocatechuic acid of growth in aerobic culture (OD610); conditions: YPD liquid medium, aerobic shaking culture 30° C.
Description: (§1) In a case where a product that has cytotoxicity, such as protocatechuic acid, is produced by the fermentation process using microorganisms, it is important that a host microorganism has resistance against the product, that is, hardly suffers from growth inhibition by the product. Then, for studying the degree of resistance against protocatechuic acid of Corynebacterium glutamicum, which is preferable as a host microorganism in the present invention, in comparison with other microorganisms, studies were made on the inhibition by protocatechuic acid of the growth of Corynebacterium glutamicum, Escherichia coli, Bacillus subtilis, Pseudomonas putida, Rhodococcus erythropolis, and Saccharomyces cerevisiae in aerobic culture.
Further, Saccharomyces cerevisiae strain NBRC2376 was applied to YPD agar plate [2% polypeptone, 1% yeast extract, 2% glucose, and 1.5% agar], and was cultured at 30° C. for 16 hours. Saccharomyces cerevisiae strain NBRC2376 on the plate described above was inoculated in YPD liquid medium [2% polypeptone, 1% yeast extract, and 2% glucose], and was subjected to aerobic shaking culture at 30° C. for 16 hours. […] The growth of bacterial cells was determined by measuring OD610.
(§2) How the addition of protocatechuic acid to medium influenced aerobic growth of each strain was analyzed, and the results are shown in FIG. 2.

[2] = test system: Rhodococcus erythropolis strain ATCC27854; assay: as above; conditions: LB-liquid medium, aerobic shaking culture 30° C.
Description: as §1
(§3) Further, Escherichia coli strain K12, Bacillus subtilis strain NBRC14144, Pseudomonas putida strain ATCC700801, and Rhodococcus erythropolis strain ATCC27854 were applied to LB-agar plate [containing 1% polypeptone, 0.5% yeast extract, 0.5% sodium chloride, and 1.5% agar]. Escherichia coli strain K12 and Bacillus subtilis strain NBRC14144 were cultured at 37° C. for 16 hours, while Pseudomonas putida strain ATCC700801 and Rhodococcus erythropolis strain ATCC27854 were cultured at 30° C. for 16 hours. Each strain grown on the plate described above was inoculated in 10 ml of LB-liquid medium [1% polypeptone, 0.5% yeast extract, and 0.5% sodium chloride]. Escherichia coli strain K12 and Bacillus subtilis strain NBRC14144 were subjected to aerobic shaking culture at 37° C. for 16 hours, while Pseudomonas putida strain ATCC700801 and Rhodococcus erythropolis strain ATCC27854 were subjected to aerobic shaking culture at 30° C. for 16 hours. Each strain grown under the above-described conditions was inoculated in 10 ml of the LB-liquid medium so that the initial bacterial cell concentration OD610=0.1, and simultaneously protocatechuic acid was added so that the final concentrations were 0, 25, 50, 100, 250, 500 mM. Escherichia coli strain K12 and Bacillus subtilis strain NBRC14144 were subjected to aerobic shaking culture at 37° C., while Pseudomonas putida strain ATCC700801 and Rhodococcus erythropolis strain ATCC27854 was subjected aerobic shaking culture at 30° C. The growth of bacterial cells was determined by measuring OD610.
as §2

[3] = test system: Pseudomonas putida strain ATCC700801; assay: as above; conditions: LB-liquid medium, aerobic shaking culture 30° C.
Description: as §1, §3, §2

[4] = test system: Bacillus subtilis strain NBRC14144; assay: as above; conditions: LB-liquid medium, aerobic shaking culture 37° C.
Description: as §1, §3, §2

[5] = test system: Escherichia coli strain K12; assay: as above; conditions: LB-liquid medium, aerobic shaking culture 37° C.
Description: as §1, §3, §2

[6] = test system: Corynebacterium glutamicum strain R; assay: as above
Description: as §1
Corynebacterium glutamicum strain R was applied to an A-agar plate [obtained by dissolving the following in distilled water 1 L: (NH2)2CO 2 g, (NH4)2SO4 7 g, KH2PO4 0.5 g, K2HPO4 0.5 g, MgSO4.7H2O 0.5 g, 0.06% (w/v) Fe2SO4.7H2O+0.042% (w/v) MnSO4.2H2O 1 ml, 0.02% (w/v) biotin solution 1 ml, 0.01% (w/v) thiamine solution 2 ml, yeast extract 2 g, vitamin assay casamino acid 7 g, agar 20 g] containing glucose at 4%, and was cultured at 33° C. for 16 hours. […] The growth of bacterial cells was determined by measuring OD610.
as §2

[7] = test system: Corynebacterium glutamicum strain R; assay: Glucose consumption under presence of high concentration of protocatechuic acid; conditions: high concentration of protocatechuic acid (0, 50, 250, 500 mM), 24-hour culture, 33° C.
Description: As indicated in Reference Example 1, Corynebacterium glutamicum was able to grow even under the presence of a high concentration of protocatechuic acid. Then, a glucose consumption ability of Corynebacterium glutamicum under the presence of a high concentration of protocatechuic acid was further studied in the following manner.
Corynebacterium glutamicum strain R was applied to the above-described A-agar plate containing glucose 4%, and was cultured at 33° C. for 16 hours. One platinum loop of Corynebacterium glutamicum strain R grown on the above-described plate was inoculated in a test tube having therein 10 ml of the above-described A-liquid medium containing glucose 4%, and was subjected to aerobic shaking culture at 33° C. for 16 hours. Corynebacterium glutamicum strain R grown under the above-described conditions was inoculated in 10 ml of the above-described A-liquid medium containing glucose 4% so that the initial bacterial cell concentration OD610=0.2. Simultaneously, protocatechuic acid was added so that the final concentrations thereof became 0, 50, 250, 500 mM, and aerobic shaking culture was carried out at 33° C. After 24-hour culture, culture solutions were collected, and centrifuged (4° C., 15,000×g, 5 minutes). Concentrations of glucose in the supernatants obtained were measured by a glucose sensor in the same manner as Example 2 to be described below. […]

Question: `O=C(O)c1ccc(O)c(O)c1` [protocatechuic acid] was tested. Which “growth of Saccharomyces cerevisiae strain NBRC2376” value ([1]; 250 mM protocatechuic acid) did it give?
Answer: inhibited

Question: What about the “growth of Saccharomyces cerevisiae strain NBRC2376” value ([1]; 500 mM protocatechuic acid) of the same molecule?
Answer: significantly inhibited

Question: What about the “growth of Rhodococcus erythropolis strain ATCC27854” value ([2]; 250 mM protocatechuic acid) of the same molecule?
Answer: strongly inhibited

Question: What about the “growth of Rhodococcus erythropolis strain ATCC27854” value ([2]; 500 mM protocatechuic acid) of the same molecule?
Answer: substantially completely inhibited

Question: And the “growth of Pseudomonas putida strain ATCC700801” value ([3]; 100 mM protocatechuic acid)?
Answer: strongly inhibited

Question: And the “growth of Pseudomonas putida strain ATCC700801” value ([3]; 250 mM protocatechuic acid)?
Answer: substantially completely inhibited

Question: And the “growth of Bacillus subtilis strain NBRC14144” value ([4]; 250 mM protocatechuic acid)?
Answer: significantly inhibited

Question: And the “growth of Bacillus subtilis strain NBRC14144” value ([4]; 500 mM protocatechuic acid)?
Answer: substantially completely inhibited

Question: And the “growth of Escherichia coli strain K12” value ([5]; 100 mM protocatechuic acid)?
Answer: significantly inhibited

Question: What about the “growth of Escherichia coli strain K12” value ([5]; 250 mM protocatechuic acid) of the same molecule?
Answer: substantially completely inhibited

Question: What about the “growth capacity of Corynebacterium glutamicum” value ([6]; 500 mM protocatechuic acid) of the same molecule?
Answer: robust growth capacity

Question: What about the “growth of Corynebacterium glutamicum strain R” value ([6]; 250 to 500 mM of protocatechuic acid, A-liquid medium with glucose 4%, aerobic shaking culture 33° C.) of the same molecule?
Answer: robust growth

Question: What about the “decrease in the saccharide consumption by Corynebacterium glutamicum” value [7] of the same molecule?
Answer: small
